Reference: US7919508B2, “3-piperidinylisochroman-5-ols as dopamine agonists” (Aventis Pharmaceuticals Inc., priority 2004, dated 2011)
Structures can show the parent of a compound that is named as a salt.

Assays:
[1] = biological target: T1, human dopamine D1 receptor (Homo sapiens, UniProt P21728); test: [3H]-SCH-23390 binding to cloned human dopamine D1 receptors (CHO cell membranes); conditions: competitive binding, [3H]-SCH-23390, cloned human D1 in CHO membranes; read-out: D1 affinity Ki
T1 construct: A 1.4 Kb Hind III to Xho I fragment was subcloned into the vector pMMLV; expressed in transfected cells; host or cells: CHO cells, clone CHO-D1M#9 (plasmid pHD1MMLV), membranes
Experimental: [^3H]-SCH-23390 Binding to Cloned Human Dopamine D1 Receptors
Determination of relative binding affinity of potential neuropsychiatric and other agents for the human dopamine D1 receptor.
The human D, cDNA was obtained from the laboratory of Dr. Marc Caron in the vector pCMV5. A 1.4 Kb Hind III to Xho I fragment was subcloned into the vector pMMLV. The plasmid pHD1MMLV was then sequenced completely. Transient transfections in COS-7 cells were performed and D1 specific binding was obtained. The construct pHD1MMLV was then transfected stably into CHO cells and 72 G418-resistant clones were isolated. High expressors were identified by mRNA dot blot analysis. Six high expressors were further characterized by binding and then clone CHO-D1M#9 was chosen for detailed pharmacological characterization. This clone was then grown in suspension culture for the purpose of obtaining enough protein to accommodate several months of screening.
B. Cell Culture Conditions
• 1. […] Cells are transferred to suspension culture when at least […] are available (this allows for 300,000 cells/ml in a 50 ml spinner flask; this is the ideal suspension density). Cells are removed from flasks with trypsin, spun down at 1000×G and resuspended the pellet in fresh medium: • 50% CHO-SFM-II+50% Ham's F12 w/10% FBS (final FBS conc. 5%)+400 μg/ml G418+1% P/S. • 3. After the transfer to suspension culture, growth is monitored and cell viability is assessed using trypan blue exclusion. Total and viable cell count on 5 sectors of the hemocytometer are recorded. When the viable cell density reaches 600,000 cell/ml, the volume is doubled. • 4. After 1 week of growth in the 50/50 medium, the cells are spun down and transferred to a new spinner flask and replaced with 75% CHO-SFM II/25% Ham's F12+10% FBS plus the pen-strep and G418. Thereafter every 3 days, the medium is replaced with new medium containing a decreasing amount of FBS as follows:
• 5. The final maintenance culturing medium is made up as follows: • A stock mixture of 10 ml of pen-strep, 0.5 ml of […] (active; final concentration: 200 μg/ml) G418 and 1 ml of FBS are mixed and filtered and refrigerated. A volume (11.5 ml) of this mixture is added to a freshly opened 1 L bottle of CHO-SFM II. C. Membrane Preparation
Cells are harvested into 250 ml centrifuge tubes and spun down at 1200×G. The medium is removed and 100 ml PBS (phosphate-buffered saline) is added to each centrifuge tube; cells are resuspended and spun down again. The PBS is removed and the final pellet is homogenized with a polytron on ice at a medium setting.
The membrane suspension is diluted in water and samples (10, 50 and 100 μl; q.s. to 100 μl with water) are diluted with 100 μl of 1% SDS. The sample is vortexed and allowed to stand for 5 min. Two aliquots each of the solubilized protein sample are placed in clean 13×100 test tubes for the assay. Instructions are followed as outlined in the BioRad DC protein determination kit (Catalog # 500-0112). OD readings that fall between 0.1-0.5 (mid-range of standard curve) should typically be used for calculations. Protein concentrations are calculated from a standard curve using bovine serum albumin as standard by linear regression and interpolation.
Following cell harvesting and protein determination, the homogenate is diluted with 10% DMSO to the correct volume based on Bmax and relative size of individual experiments to be conducted. The concentrated protein is stored in cryogenic vials in aliquots of 1-1.5 ml. Samples may be stored in −80° C. freezer or in liquid nitrogen.

[2] = biological target: human dopamine D2Long (D2L) receptors (Homo sapiens, UniProt P14416)
Sequence of human dopamine D2Long (D2L) receptors (P14416 whole entry): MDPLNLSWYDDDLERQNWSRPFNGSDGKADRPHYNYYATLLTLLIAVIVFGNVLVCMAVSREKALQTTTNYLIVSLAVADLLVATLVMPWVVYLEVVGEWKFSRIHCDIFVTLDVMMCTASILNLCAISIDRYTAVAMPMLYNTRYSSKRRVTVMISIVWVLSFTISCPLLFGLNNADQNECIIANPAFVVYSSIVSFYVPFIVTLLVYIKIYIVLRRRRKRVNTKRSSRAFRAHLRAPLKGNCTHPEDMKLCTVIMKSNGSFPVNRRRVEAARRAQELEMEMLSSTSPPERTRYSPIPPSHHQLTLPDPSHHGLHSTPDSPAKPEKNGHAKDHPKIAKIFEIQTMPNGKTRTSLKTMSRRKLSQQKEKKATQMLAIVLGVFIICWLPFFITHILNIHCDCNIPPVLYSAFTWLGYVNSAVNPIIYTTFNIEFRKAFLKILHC

T1 sequence (P21728 whole entry, the tested form may be a part): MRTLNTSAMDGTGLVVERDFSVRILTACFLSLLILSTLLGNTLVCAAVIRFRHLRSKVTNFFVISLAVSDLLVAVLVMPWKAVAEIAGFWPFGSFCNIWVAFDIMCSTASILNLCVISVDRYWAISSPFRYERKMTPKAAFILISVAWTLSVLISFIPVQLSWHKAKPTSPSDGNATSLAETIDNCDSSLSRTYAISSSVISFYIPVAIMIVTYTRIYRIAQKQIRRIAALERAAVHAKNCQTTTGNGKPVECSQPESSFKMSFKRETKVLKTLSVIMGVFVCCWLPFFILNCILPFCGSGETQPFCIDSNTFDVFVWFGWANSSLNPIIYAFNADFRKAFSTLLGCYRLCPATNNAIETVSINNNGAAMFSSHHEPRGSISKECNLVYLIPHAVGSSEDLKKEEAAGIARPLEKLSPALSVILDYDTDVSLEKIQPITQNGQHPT

| Ki [1] [nM] | Ki [2] [nM] | SMILES |
| --- | --- | --- |
| 158 | 172 | Cc1ccc2c(c1O)C[C@@H](C1CCN(Cc3ccccc3)CC1)O[C@H]2CN(C)C [Example 169, (1R,3S)-3-(1-Benzyl-piperidin-4-yl)-1-dimethylaminomethyl-6-methyl-isochroman-5-ol] |
| 1670 | 377 | CCN(CC)C[C@@H]1O[C@H](C2CCN(Cc3ccccc3)CC2)Cc2c1ccc(C)c2O [Example 170, (1R,3S)-3-(1-Benzyl-piperidin-4-yl)-1-diethylaminomethyl-6-methyl-isochroman-5-ol] |
| 425 | 241 | CCN(C)C[C@@H]1O[C@H](C2CCN(Cc3ccccc3)CC2)Cc2c1ccc(C)c2O [Example 173, (1R,3S)-3-(1-Benzyl-piperidin-4-yl)-1-[(ethyl-methyl-amino)-methyl]-6-methyl-isochroman-5-ol] |
| 3070 | ≥ 10000 | CCCN(C)C[C@@H]1O[C@H](C2CCN(Cc3ccccc3)CC2)Cc2c1ccc(C)c2O [Example 175, (1R,3S)-3-(1-Benzyl-piperidin-4-yl)-6-methyl-1-[(methyl-propyl-amino)-methyl]-isochroman-5-ol] |
| 1700 | 124 | C=CCN(C)C[C@@H]1O[C@H](C2CCN(Cc3ccccc3)CC2)Cc2c1ccc(C)c2O [Example 176, (1R,3S)-1-[(Allyl-methyl-amino)-methyl]-3-(1-benzyl-piperidin-4-yl)-6-methyl-isochroman-5-ol] |

More lines, now with the values behind:

| SMILES | Ki [1] [nM] | Ki [2] [nM] |
| --- | --- | --- |
| Cc1ccc2c(c1O)C[C@@H](C1CCN(S(=O)(=O)C[C@]34CC[C@H](CC3=O)C4(C)C)CC1)O[C@H]2CN [Example 163, 1(S)-[4-((1R,3S)-1-Aminomethyl-5-hydroxy-6-methyl-isochroman-3-yl)-piperidine-1-sulfonylmethyl]-7,7-dimethyl-bicyclo[2.2.1]heptan-2-one hydrochloride] | 320 | ≥ 100000 |
| Cc1ccc2c(c1O)C[C@@H](C1CCN(S(=O)(=O)N(C)C)CC1)O[C@H]2CN [Example 164, 4-((1R,3S)-1-Aminomethyl-5-hydroxy-6-methyl-isochroman-3-yl)-piperidine-1-sulfonic acid dimethylamide hydrochloride] | 400 | ≥ 100000 |
| Cc1ccc2c(c1O)C[C@@H](C1CCN(S(=O)(=O)N3CCCCC3)CC1)O[C@H]2CN [Example 165, (1R,3S)-1-Aminomethyl-6-methyl-3-[1-(piperidine-1-sulfonyl)-piperidin-4-yl]-isochroman-5-ol hydrochloride] | 227 | ≥ 10000 |
| Cc1ccc2c(c1O)C[C@@H](C1CCN(S(=O)(=O)N3CCC(Cc4ccccc4)CC3)CC1)O[C@H]2CN [Example 166, (1R,3S)-1-Aminomethyl-3-[1-(4-benzyl-piperidine-1-sulfonyl)-piperidin-4-yl]-6-methyl-isochroman-5-ol hydrochloride] | 207 | 246 |
| CNC[C@@H]1O[C@H](C2CCN(Cc3ccccc3)CC2)Cc2c1ccc(C)c2O [Example 171, (1R,3S)-3-(1-Benzyl-piperidin-4-yl)-6-methyl-1-methylaminomethyl-isochroman-5-ol] | 98 | 317 |
| CCNC[C@@H]1O[C@H](C2CCN(Cc3ccccc3)CC2)Cc2c1ccc(C)c2O [Example 172, (1R,3S)-3-(1-Benzyl-piperidin-4-yl)-1-ethylaminomethyl-6-methyl-isochroman-5-ol] | 522 | 279 |
| CCCNC[C@@H]1O[C@H](C2CCN(Cc3ccccc3)CC2)Cc2c1ccc(C)c2O [Example 174, (1R,3S)-3-(1-Benzyl-piperidin-4-yl)-6-methyl-1-propylaminomethyl-isochroman-5-ol] | 510 | 248 |
| Cc1ccc2c(c1O)C[C@@H](C1CCN(Cc3ccccc3)CC1)O[C@H]2CNC1CCC1 [Example 177, (1R,3S)-3-(1-Benzyl-piperidin-4-yl)-1-cyclobutylaminomethyl-6-methyl-isochroman-5-ol] | ≥ 10000 | 305 |
| C=CCN(CC=C)C[C@@H]1O[C@H](C2CCN(CC(=O)c3ccccc3)CC2)Cc2c1ccc(C)c2O [Example 180, 2-[4-((1R,3S)-1-Diallylaminomethyl-5-hydroxy-6-methyl-isochroman-3-yl)-piperidin-1-yl]-1-phenyl-ethanone] | 642 | 86 |
| CCCN(CCC)C[C@@H]1O[C@H](C2CCN(Cc3ccccc3)CC2)Cc2c1ccc(C)c2O [Example 188, (1R,3S)-3-(1-Benzyl-piperidin-4-yl)-1-dipropylaminomethyl-6-methyl-isochroman-5-ol dihydrochloride] | 586 | 140 |
| Cc1ccc(C(=O)NCCN2CCC([C@@H]3Cc4c(ccc(C)c4O)[C@H](CN)O3)CC2)cc1 [Example 190, N-{2-[4-((1R,3S)-1-Aminomethyl-5-hydroxy-6-methylisochroman-3-yl)-piperidin-1-yl]-ethyl}-4-methylbenzamide dihydrobromide] | 46 | 361 |
